System: Genes belonging to other category
Test: DNA chip mRNA expression in yeast, genes belonging to other category (Table 9)
Format: cell-based, Saccharomyces cerevisiae S288C
Outline: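 Expression change after 2 h toxicant exposure (growth-inhibiting, sub-lethal) of log-phase S. cerevisiae S288C at 25° C. Oligo-dT-purified mRNA was labeled with Cy3-dUTP or Cy5-dUTP and hybridized >12 h at 65° C. to a genome-wide chip; ratio of scanned fluorescence to control.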

S=C([S-])NCCNC(=S)[S-].[Zn+2] [(11), zinc N,N′-ethylenebis(dithiocarbamate)]
The level of expressed mRNA in the presence of chemical substance/The level of expressed mRNA in the absence of chemical substance (yeast gene YNL083W): 0.9 | The level of expressed mRNA in the presence of chemical substance/The level of expressed mRNA in the absence of chemical substance (yeast gene YNL093W): 1.6 | The level of expressed mRNA in the presence of chemical substance/The level of expressed mRNA in the absence of chemical substance (yeast gene YNL135C): 0.7 | The level of expressed mRNA in the presence of chemical substance/The level of expressed mRNA in the absence of chemical substance (yeast gene YNL147W): 1.2 | The level of expressed mRNA in the presence of chemical substance/The level of expressed mRNA in the absence of chemical substance (yeast gene YNL196C): 0.7 | The level of expressed mRNA in the presence of chemical substance/The level of expressed mRNA in the absence of chemical substance (yeast gene YNL333W): 2.0 | The level of expressed mRNA in the presence of chemical substance/The level of expressed mRNA in the absence of chemical substance (yeast gene YNR010W): 1.4 | The level of expressed mRNA in the presence of chemical substance/The level of expressed mRNA in the absence of chemical substance (yeast gene YNR030W): 1.2 | The level of expressed mRNA in the presence of chemical substance/The level of expressed mRNA in the absence of chemical substance (yeast gene YNR034W): 1.3 | The level of expressed mRNA in the presence of chemical substance/The level of expressed mRNA in the absence of chemical substance (yeast gene YNR035C): 1.5 | The level of expressed mRNA in the presence of chemical substance/The level of expressed mRNA in the absence of chemical substance (yeast gene YNR047W): 0.6 | The level of expressed mRNA in the presence of chemical substance/The level of expressed mRNA in the absence of chemical substance (yeast gene YNR069C): 2.5 | The level of expressed mRNA in the presence of chemical substance/The level of expressed mRNA in the absence of chemical substance (yeast gene YOL005C): 1.6 | The level of expressed mRNA in the presence of chemical substance/The level of expressed mRNA in the absence of chemical substance (yeast gene YOL013C): 1.4 | The level of expressed mRNA in the presence of chemical substance/The level of expressed mRNA in the absence of chemical substance (yeast gene YOL164W): 1.0 | The level of expressed mRNA in the presence of chemical substance/The level of expressed mRNA in the absence of chemical substance (yeast gene YOR003W): 0.7 | The level of expressed mRNA in the presence of chemical substance/The level of expressed mRNA in the absence of chemical substance (yeast gene YOR023C): 0.9 | The level of expressed mRNA in the presence of chemical substance/The level of expressed mRNA in the absence of chemical substance (yeast gene YOR036W): 1.3 | The level of expressed mRNA in the presence of chemical substance/The level of expressed mRNA in the absence of chemical substance (yeast gene YOR058C): 1.4 | The level of expressed mRNA in the presence of chemical substance/The level of expressed mRNA in the absence of chemical substance (yeast gene YOR117W): 1.2 | The level of expressed mRNA in the presence of chemical substance/The level of expressed mRNA in the absence of chemical substance (yeast gene YOR124C): 1.2 | The level of expressed mRNA in the presence of chemical substance/The level of expressed mRNA in the absence of chemical substance (yeast gene YOR132W): 1.3 | The level of expressed mRNA in the presence of chemical substance/The level of expressed mRNA in the absence of chemical substance (yeast gene YOR148C): 1.3 | The level of expressed mRNA in the presence of chemical substance/The level of expressed mRNA in the absence of chemical substance (yeast gene YOR157C): 1.6 | The level of expressed mRNA in the presence of chemical substance/The level of expressed mRNA in the absence of chemical substance (yeast gene YOR181W): 1.0 | The level of expressed mRNA in the presence of chemical substance/The level of expressed mRNA in the absence of chemical substance (yeast gene YOR185C): 1.2 | The level of expressed mRNA in the presence of chemical substance/The level of expressed mRNA in the absence of chemical substance (yeast gene YOR198C): 1.4 | The level of expressed mRNA in the presence of chemical substance/The level of expressed mRNA in the absence of chemical substance (yeast gene YOR230W): 1.6 | The level of expressed mRNA in the presence of chemical substance/The level of expressed mRNA in the absence of chemical substance (yeast gene YOR259C): 1.0 | The level of expressed mRNA in the presence of chemical substance/The level of expressed mRNA in the absence of chemical substance (yeast gene YOR261C): 2.1 | The level of expressed mRNA in the presence of chemical substance/The level of expressed mRNA in the absence of chemical substance (yeast gene YOR265W): 1.3 | The level of expressed mRNA in the presence of chemical substance/The level of expressed mRNA in the absence of chemical substance (yeast gene YOR288C): 1.4 | The level of expressed mRNA in the presence of chemical substance/The level of expressed mRNA in the absence of chemical substance (yeast gene YOR298W): 0.1 | The level of expressed mRNA in the presence of chemical substance/The level of expressed mRNA in the absence of chemical substance (yeast gene YOR312C): 0.8 | The level of expressed mRNA in the presence of chemical substance/The level of expressed mRNA in the absence of chemical substance (yeast gene YOR355W): 1.2 | The level of expressed mRNA in the presence of chemical substance/The level of expressed mRNA in the absence of chemical substance (yeast gene YOR383C): 1.4 | The level of expressed mRNA in the presence of chemical substance/The level of expressed mRNA in the absence of chemical substance (yeast gene YPL089C): 0.9 | The level of expressed mRNA in the presence of chemical substance/The level of expressed mRNA in the absence of chemical substance (yeast gene YPL105C): 0.6 | The level of expressed mRNA in the presence of chemical substance/The level of expressed mRNA in the absence of chemical substance (yeast gene YPL109C): −0.2 | The level of expressed mRNA in the presence of chemical substance/The level of expressed mRNA in the absence of chemical substance (yeast gene YPL149W): 1.2 | The level of expressed mRNA in the presence of chemical substance/The level of expressed mRNA in the absence of chemical substance (yeast gene YPL154C): 1.8 | The level of expressed mRNA in the presence of chemical substance/The level of expressed mRNA in the absence of chemical substance (yeast gene YPL177C): 1.4 | The level of expressed mRNA in the presence of chemical substance/The level of expressed mRNA in the absence of chemical substance (yeast gene YPL230W): 3.1 | The level of expressed mRNA in the presence of chemical substance/The level of expressed mRNA in the absence of chemical substance (yeast gene YPR028W): 1.4 | The level of expressed mRNA in the presence of chemical substance/The level of expressed mRNA in the absence of chemical substance (yeast gene YPR066W): 0.9 | The level of expressed mRNA in the presence of chemical substance/The level of expressed mRNA in the absence of chemical substance (yeast gene YPR081C): 0.9 | The level of expressed mRNA in the presence of chemical substance/The level of expressed mRNA in the absence of chemical substance (yeast gene YPR103W): 0.9 | The level of expressed mRNA in the presence of chemical substance/The level of expressed mRNA in the absence of chemical substance (yeast gene YPR108W): 1.8 | The level of expressed mRNA in the presence of chemical substance/The level of expressed mRNA in the absence of chemical substance (yeast gene YPR155C): 0.9 | The level of expressed mRNA in the presence of chemical substance/The level of expressed mRNA in the absence of chemical substance (yeast gene YPR185W): 0.9
